Measured values reported in ChEMBL document CHEMBL1143288, “(-)-Cercosporamide derivatives as novel antihyperglycemic agents” (Bioorg Med Chem Lett, 2009).
Activity calls are given as the source filed them. No cut-off for these calls is given here.

Experiments:
Mus musculus [1] = test: Antihyperglycemic activity in hyperglycemic KK/Ta mouse assessed as change in plasma glucose level administered with diet in ratio of 0.1% for 1 week relative to control; format: functional
Mus musculus [2] = test: Antihyperglycemic activity in hyperglycemic KK/Ta mouse assessed as effect on body weight administered with diet in ratio of 0.1% for 1 week measured on day 7 relative to control; format: ADME, organism-based; details: in vivo, po, 168 h
Mus musculus [3] = test: Antihyperglycemic activity in hyperglycemic KK/Ta mouse assessed as effect on food intake administered with diet in ratio of 0.1% for 1 week measured on day 7 relative to control; format: ADME, organism-based; details: in vivo, po, 168 h
Mus musculus [4] = test: Antihyperglycemic activity in hyperglycemic KK/Ta mouse assessed as food intake administered with diet in ratio of 0.1% for 1 week measured on day 7; format: ADME, organism-based; details: in vivo, po, 168 h
Mus musculus [5] = test: Antihyperglycemic activity in hyperglycemic KK/Ta mouse assessed as food intake administered with diet in ratio of 0.003% for 1 week measured on day 7; format: ADME, organism-based; details: in vivo, po, 168 h
Mus musculus [6] = test: Antihyperglycemic activity in hyperglycemic KK/Ta mouse assessed as food intake administered with diet in ratio of 0.03% for 1 week measured on day 7; format: ADME, organism-based; details: in vivo, po, 168 h
[7] = target: T1, Protein kinase C beta type (Homo sapiens, UniProt P05771); test: Inhibition of human PKCbeta by scintillation proximity assay
Target sequence in this assay (P05771 whole entry): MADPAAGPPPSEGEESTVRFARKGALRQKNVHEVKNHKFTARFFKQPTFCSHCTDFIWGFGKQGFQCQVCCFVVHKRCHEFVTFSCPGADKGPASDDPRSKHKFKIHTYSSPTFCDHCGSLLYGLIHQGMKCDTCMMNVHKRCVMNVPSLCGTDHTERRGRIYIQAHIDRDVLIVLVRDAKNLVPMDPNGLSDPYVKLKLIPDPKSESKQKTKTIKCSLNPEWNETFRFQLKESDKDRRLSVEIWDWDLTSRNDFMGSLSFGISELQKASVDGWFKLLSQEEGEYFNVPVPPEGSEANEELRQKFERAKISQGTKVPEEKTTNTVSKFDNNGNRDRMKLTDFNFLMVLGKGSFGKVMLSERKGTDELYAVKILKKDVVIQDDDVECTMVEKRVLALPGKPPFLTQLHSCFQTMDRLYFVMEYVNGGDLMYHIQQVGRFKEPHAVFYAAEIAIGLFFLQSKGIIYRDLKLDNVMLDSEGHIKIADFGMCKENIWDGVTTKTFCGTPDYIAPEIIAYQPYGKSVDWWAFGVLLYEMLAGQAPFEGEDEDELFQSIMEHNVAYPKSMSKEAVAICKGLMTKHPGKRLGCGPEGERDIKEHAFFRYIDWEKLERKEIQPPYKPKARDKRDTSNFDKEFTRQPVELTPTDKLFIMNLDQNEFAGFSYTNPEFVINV

Mus musculus [8] = test: Antihyperglycemic activity in hyperglycemic KK/Ta mouse assessed as body weight administered with diet in ratio of 0.1% for 1 week measured on day 7; format: ADME, organism-based; details: in vivo, po, 168 h
Mus musculus [9] = test: Antihyperglycemic activity in hyperglycemic KK/Ta mouse assessed as plasma glucose level administered with diet in ratio of 0.03% for 1 week; format: functional
Mus musculus [10] = test: Antihyperglycemic activity in hyperglycemic KK/Ta mouse assessed as plasma glucose level administered with diet in ratio of 0.003% for 1 week; format: functional
Mus musculus [11] = test: Antihyperglycemic activity in hyperglycemic KK/Ta mouse assessed as plasma glucose level administered with diet in ratio of 0.1% for 1 week; format: functional
Mus musculus [12] = test: Antihyperglycemic activity in hyperglycemic KK/Ta mouse assessed as body weight administered with diet in ratio of 0.01% for 1 week measured on day 7; format: ADME, organism-based; details: in vivo, po, 168 h
[13] = target: T2, Protein kinase C alpha type (Homo sapiens, UniProt P17252); test: Inhibition of human PKCalpha by scintillation proximity assay
Mus musculus [14] = test: Antihyperglycemic activity in hyperglycemic KK/Ta mouse assessed as plasma glucose level administered with diet in ratio of 0.01% for 1 week; format: functional
[15] = target: Protein kinase C gamma type (Homo sapiens, UniProt P05129); test: Inhibition of human PKCgamma by scintillation proximity assay
Mus musculus [16] = test: Antihyperglycemic activity in hyperglycemic KK/Ta mouse assessed as body weight administered with diet in ratio of 0.003% for 1 week measured on day 7; format: ADME, organism-based; details: in vivo, po, 168 h
Mus musculus [17] = test: Antihyperglycemic activity in hyperglycemic KK/Ta mouse assessed as body weight administered with diet in ratio of 0.03% for 1 week measured on day 7; format: ADME, organism-based; details: in vivo, po, 168 h
Mus musculus [18] = test: Antihyperglycemic activity in hyperglycemic KK/Ta mouse assessed as food intake administered with diet in ratio of 0.01% for 1 week measured on day 7; format: ADME, organism-based; details: in vivo, po, 168 h
Protein kinase C-like 1 = target: T3, Protein kinase C-like 1 (Candida albicans, UniProt P43057); test: Inhibition of Candida albicans Pkc1 expressed in insect Sf9 cells by scintillation proximity assay
T3 sequence (P43057 whole entry): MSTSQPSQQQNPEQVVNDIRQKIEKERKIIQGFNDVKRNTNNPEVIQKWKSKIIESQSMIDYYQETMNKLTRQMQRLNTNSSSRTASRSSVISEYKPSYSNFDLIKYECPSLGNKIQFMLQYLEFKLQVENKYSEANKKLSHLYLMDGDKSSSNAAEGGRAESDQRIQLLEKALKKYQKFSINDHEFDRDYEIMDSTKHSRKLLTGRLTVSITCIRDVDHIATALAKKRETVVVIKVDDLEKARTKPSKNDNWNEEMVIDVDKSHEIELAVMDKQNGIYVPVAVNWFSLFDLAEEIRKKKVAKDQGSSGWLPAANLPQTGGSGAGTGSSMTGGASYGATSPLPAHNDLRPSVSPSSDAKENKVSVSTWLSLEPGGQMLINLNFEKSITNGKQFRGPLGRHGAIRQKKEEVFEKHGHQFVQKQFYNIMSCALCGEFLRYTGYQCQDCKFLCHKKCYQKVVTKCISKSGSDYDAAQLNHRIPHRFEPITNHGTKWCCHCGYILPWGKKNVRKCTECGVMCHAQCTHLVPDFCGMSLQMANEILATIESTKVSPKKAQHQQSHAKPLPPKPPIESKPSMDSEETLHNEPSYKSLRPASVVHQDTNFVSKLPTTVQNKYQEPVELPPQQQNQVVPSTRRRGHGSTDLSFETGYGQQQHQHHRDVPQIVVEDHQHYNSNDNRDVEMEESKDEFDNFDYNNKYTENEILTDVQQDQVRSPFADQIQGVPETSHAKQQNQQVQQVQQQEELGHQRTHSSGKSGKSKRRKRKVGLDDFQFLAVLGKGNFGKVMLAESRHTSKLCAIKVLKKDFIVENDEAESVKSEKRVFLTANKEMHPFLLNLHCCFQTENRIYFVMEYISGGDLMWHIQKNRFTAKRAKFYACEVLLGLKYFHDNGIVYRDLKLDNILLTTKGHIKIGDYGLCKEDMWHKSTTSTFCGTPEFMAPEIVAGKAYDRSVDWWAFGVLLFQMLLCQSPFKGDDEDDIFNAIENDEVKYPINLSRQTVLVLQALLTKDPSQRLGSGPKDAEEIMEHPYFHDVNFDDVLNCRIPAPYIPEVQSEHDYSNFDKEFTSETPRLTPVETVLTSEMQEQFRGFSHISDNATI

Mus musculus [19] = test: Antihyperglycemic activity in hyperglycemic KK/Ta mouse assessed as change in plasma glucose level administered with diet in ratio of 0.03% administered for 1 week relative to control; format: functional
Mus musculus [20] = test: Antihyperglycemic activity in hyperglycemic KK/Ta mouse assessed as effect on food intake administered with diet in ratio of 0.03% for 1 week measured on day 7 relative to control; format: ADME, organism-based; details: in vivo, po, 168 h
Mus musculus [21] = test: Antihyperglycemic activity in hyperglycemic KK/Ta mouse assessed as effect on body weight administered with diet in ratio of 0.03% for 1 week measured on day 7 relative to control; format: ADME, organism-based; details: in vivo, po, 168 h
[22] = target: Protein kinase C delta type (Homo sapiens) (UniProt Q05655); test: Inhibition of PKCdelta at 1 uM
Sequence of Protein kinase C delta type (Homo sapiens) (Q05655 whole entry, looked up): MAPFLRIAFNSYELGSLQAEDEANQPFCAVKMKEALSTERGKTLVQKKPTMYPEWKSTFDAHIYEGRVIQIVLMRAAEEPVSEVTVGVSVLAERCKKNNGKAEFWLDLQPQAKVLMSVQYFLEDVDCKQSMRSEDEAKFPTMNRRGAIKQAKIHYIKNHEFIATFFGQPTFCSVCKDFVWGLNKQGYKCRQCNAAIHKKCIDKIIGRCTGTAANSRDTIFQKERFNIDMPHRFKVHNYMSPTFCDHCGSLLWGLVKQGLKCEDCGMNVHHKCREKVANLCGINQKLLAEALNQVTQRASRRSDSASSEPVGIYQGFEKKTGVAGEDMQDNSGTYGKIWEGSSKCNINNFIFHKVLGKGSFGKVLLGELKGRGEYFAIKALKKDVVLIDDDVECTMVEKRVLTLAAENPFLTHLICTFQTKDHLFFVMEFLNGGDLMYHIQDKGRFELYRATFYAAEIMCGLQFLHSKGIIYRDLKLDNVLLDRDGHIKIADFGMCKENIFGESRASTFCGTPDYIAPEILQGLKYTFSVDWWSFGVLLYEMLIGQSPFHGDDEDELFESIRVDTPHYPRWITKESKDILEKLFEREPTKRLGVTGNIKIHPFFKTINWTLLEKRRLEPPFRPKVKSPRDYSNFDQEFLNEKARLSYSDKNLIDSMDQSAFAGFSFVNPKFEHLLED

[23] = target: T1, Protein kinase C beta type; test: Inhibition of PKCbeta2 at 1 uM
Target sequence in this assay (P05771 2-671 limits assumed): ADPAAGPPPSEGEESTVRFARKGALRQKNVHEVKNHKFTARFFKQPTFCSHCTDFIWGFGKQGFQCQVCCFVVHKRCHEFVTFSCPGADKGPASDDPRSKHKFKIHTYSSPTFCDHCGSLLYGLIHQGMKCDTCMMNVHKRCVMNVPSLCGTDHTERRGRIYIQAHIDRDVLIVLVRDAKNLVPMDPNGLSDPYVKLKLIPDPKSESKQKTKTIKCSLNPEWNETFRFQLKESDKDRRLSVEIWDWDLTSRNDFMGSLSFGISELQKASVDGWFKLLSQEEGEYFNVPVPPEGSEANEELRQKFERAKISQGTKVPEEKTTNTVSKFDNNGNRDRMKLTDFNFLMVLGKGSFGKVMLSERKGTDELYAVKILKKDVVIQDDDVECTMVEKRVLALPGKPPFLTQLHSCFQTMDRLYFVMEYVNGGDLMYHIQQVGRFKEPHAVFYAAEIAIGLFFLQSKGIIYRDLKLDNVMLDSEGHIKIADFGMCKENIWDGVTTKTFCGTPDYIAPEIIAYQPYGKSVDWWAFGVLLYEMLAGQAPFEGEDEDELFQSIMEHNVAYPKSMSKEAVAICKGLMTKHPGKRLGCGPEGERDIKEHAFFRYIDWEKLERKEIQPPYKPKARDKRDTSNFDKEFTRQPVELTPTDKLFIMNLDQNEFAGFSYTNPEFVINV

[24] = target: Protein kinase C eta type (Homo sapiens) (UniProt P24723); test: Inhibition of PKCeta at 1 uM
Sequence of Protein kinase C eta type (Homo sapiens) (P24723 whole entry): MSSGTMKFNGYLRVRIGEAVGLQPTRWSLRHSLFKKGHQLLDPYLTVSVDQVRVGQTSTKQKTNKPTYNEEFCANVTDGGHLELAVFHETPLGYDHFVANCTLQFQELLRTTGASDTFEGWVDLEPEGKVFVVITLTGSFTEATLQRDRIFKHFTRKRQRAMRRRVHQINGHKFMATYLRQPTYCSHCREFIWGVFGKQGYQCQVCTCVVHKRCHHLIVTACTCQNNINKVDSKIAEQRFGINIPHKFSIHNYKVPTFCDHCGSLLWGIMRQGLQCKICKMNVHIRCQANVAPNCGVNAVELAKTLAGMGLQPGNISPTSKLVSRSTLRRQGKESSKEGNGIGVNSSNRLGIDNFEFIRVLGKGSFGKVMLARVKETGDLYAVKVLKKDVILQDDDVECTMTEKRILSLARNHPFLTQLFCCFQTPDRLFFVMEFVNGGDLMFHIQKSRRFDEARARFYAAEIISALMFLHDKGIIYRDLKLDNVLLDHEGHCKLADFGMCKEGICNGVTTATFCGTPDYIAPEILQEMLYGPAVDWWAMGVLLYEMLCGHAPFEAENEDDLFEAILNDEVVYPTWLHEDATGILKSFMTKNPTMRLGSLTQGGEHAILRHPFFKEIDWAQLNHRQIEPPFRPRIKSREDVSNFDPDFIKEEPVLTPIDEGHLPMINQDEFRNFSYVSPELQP

[25] = target: T1, Protein kinase C beta type; test: Inhibition of PKCbeta1 at 1 uM
Target sequence in this assay (P05771 2-671 limits assumed): as the sequence (P05771 2-671 limits assumed) above

[26] = target: T2, Protein kinase C alpha type; test: Inhibition of PKCalpha at 1 uM
[27] = target: T4, Protein kinase C zeta type (Homo sapiens) (UniProt Q05513); test: Inhibition of PKCzeta at 1 uM
T4 sequence (whole entry): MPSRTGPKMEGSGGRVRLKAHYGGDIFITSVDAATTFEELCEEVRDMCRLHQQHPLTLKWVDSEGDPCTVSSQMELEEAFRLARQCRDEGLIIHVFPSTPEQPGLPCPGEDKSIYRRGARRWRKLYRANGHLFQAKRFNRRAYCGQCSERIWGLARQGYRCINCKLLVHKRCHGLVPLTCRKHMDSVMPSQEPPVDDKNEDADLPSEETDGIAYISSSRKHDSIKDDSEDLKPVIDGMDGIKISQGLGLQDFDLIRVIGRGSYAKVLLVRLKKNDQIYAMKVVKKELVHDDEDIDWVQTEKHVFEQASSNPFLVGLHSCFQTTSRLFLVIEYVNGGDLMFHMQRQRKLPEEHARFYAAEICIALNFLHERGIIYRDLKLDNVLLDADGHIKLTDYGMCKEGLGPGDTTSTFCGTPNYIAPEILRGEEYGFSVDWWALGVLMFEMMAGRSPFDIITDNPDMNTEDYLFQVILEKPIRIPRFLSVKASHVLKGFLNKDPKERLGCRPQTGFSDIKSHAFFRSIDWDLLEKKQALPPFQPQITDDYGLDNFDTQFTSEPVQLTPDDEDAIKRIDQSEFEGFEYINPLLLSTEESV

[28] = target: T5, Protein kinase C epsilon type (Homo sapiens) (UniProt Q02156); test: Inhibition of PKCepsilon at 1 uM
T5 sequence (whole entry): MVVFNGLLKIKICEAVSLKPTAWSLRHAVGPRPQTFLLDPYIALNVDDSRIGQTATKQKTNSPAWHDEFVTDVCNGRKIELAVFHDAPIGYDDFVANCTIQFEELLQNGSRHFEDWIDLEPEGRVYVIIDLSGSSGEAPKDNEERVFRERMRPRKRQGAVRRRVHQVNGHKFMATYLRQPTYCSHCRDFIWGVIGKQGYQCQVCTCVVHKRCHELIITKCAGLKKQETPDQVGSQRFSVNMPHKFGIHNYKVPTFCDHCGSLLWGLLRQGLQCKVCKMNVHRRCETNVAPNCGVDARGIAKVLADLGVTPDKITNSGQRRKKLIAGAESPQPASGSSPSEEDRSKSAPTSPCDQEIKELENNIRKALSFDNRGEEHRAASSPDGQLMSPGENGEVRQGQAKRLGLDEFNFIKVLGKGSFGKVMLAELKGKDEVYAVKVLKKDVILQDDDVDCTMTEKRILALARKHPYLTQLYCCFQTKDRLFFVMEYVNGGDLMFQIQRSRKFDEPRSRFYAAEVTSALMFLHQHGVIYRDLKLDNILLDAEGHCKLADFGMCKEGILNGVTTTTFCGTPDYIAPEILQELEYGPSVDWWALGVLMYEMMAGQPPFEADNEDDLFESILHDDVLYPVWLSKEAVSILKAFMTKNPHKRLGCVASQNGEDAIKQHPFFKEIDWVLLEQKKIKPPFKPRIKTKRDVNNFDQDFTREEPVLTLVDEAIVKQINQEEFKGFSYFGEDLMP

COc1cc(O)c2c(c1C(N)=O)OC1=CC(O)=C(C(C)=O)C(=O)[C@]12C
Activity (Mus musculus [1]): 70%
Activity (Mus musculus [2]): 83%
Activity (Mus musculus [3]): 37%

CC(=O)C1=C(O)C=C2Oc3c(C(N)=O)c(O)cc(O)c3[C@]2(C)C1=O
Activity (Mus musculus [4]): 1.89 g/day
Activity (Mus musculus [5]): 5.78 g/day
Activity (Mus musculus [6]): 3.65 g/day
IC50 [7]: 350 nM
Activity (Mus musculus [8]): 39.1 g
Activity (Mus musculus [9]): 272 mg/dL
Activity (Mus musculus [1]): 71%
Activity (Mus musculus [10]): 571 mg/dL
Activity (Mus musculus [2]): 83%
Activity (Mus musculus [11]): 176 mg/dL
Activity (Mus musculus [12]): 47 g
IC50 [13]: 1020 nM
Activity (Mus musculus [3]): 34%
Activity (Mus musculus [14]): 408 mg/dL
IC50 [15]: 5800 nM
Activity (Mus musculus [16]): 48.4 g
Activity (Mus musculus [17]): 45.9 g
Activity (Mus musculus [18]): 4.81 g/day
IC50 (Protein kinase C-like 1): 44 nM

CC(=O)C1=C(O)C=C2Oc3c4c(cc(O)c3[C@]2(C)C1=O)OC1(CCCC1)NC4=O
Activity (Mus musculus [19]): 7%
Activity (Mus musculus [20]): 106%
Activity (Mus musculus [21]): 102%

CC(=O)C1=C(O)C=C2Oc3c4c(cc(O)c3[C@]2(C)C1=O)OC(C)(c1ccccc1)NC4=O (stereo partly specified)
Activity (Mus musculus [19]): 54%
Activity (Mus musculus [20]): 94%
Activity (Mus musculus [21]): 100%

CC(=O)C1=C(O)C=C2Oc3c4c(cc(O)c3[C@]2(C)C1=O)OC1(CCCCC1)NC4=O
Activity (Mus musculus [19]): 38%
Activity (Mus musculus [20]): 104%
Activity (Mus musculus [21]): 104%

CC1=NOC2C=C3Oc4c(C(N)=O)c(O)cc(O)c4[C@]3(C)C(=O)C12 (stereo partly specified)
Activity (Mus musculus [1]): 1%
Activity (Mus musculus [2]): 102%
Activity (Mus musculus [3]): 126%

CC(=O)C1=C(O)C=C2Oc3c4c(cc(O)c3[C@]2(C)C1=O)OC(C)(C)NC4=O
Activity [22]: inactive
Activity (Mus musculus [1]): 56%
Activity (Mus musculus [2]): 102%
Activity [23]: inactive
Activity [24]: inactive
Activity (Mus musculus [3]): 78%
Activity (Mus musculus [19]): 35%
Activity [25]: inactive
Activity [26]: inactive
Activity (Mus musculus [20]): 92%
Activity [27]: inactive
Activity [28]: inactive
Activity (Mus musculus [21]): 102%

CC(=O)C1=C(O)CC2Oc3c(C(N)=O)c(O)cc(O)c3[C@]2(C)C1=O (stereo partly specified)
Activity (Mus musculus [1]): 29%
Activity (Mus musculus [2]): 101%
Activity (Mus musculus [3]): 111%

COc1cc(OC)c2c(c1C(=O)N(C)C)OC1=CC(O)=C(C(C)=O)C(=O)[C@]12C
Activity (Mus musculus [1]): 14%
Activity (Mus musculus [2]): 96%
Activity (Mus musculus [3]): 95%

COc1cc(OC)c2c(c1C(N)=O)OC1=CC(O)=C(C(C)=O)C(=O)[C@]12C
Activity (Mus musculus [1]): 26%
Activity (Mus musculus [2]): 100%
Activity (Mus musculus [3]): 92%
